Read-outs that look alike come from different tables or passages of the source. Positions of bridges follow the written chain, without caps; N, C: chain ends. Non-standard residues stand in square brackets, D forms with d. Residues, ends and D or L forms follow the SMILES beside them. 1Nal = N[C@@H](Cc1cccc2ccccc12)C(=O)O; Pra = C#CC[C@H](N)C(=O)O
Experiments:
Assay in all cases: cell-based
[1] = target: hNav1.5 (Homo sapiens, UniProt Q14524)
[2] = target: hNav1.3 (Homo sapiens, UniProt Q9NY46); details: IonWorks Quattro, read-out: IWQ Use Nav1.3
[3] = target: hNav1.7 (Homo sapiens, UniProt Q15858); assay type: cell-based; details: IonWorks Quattro, read-out: IWQ Use Nav1.7
[4] = IonWorks Quattro, use-dependent block, hNav1.5, read-out: IWQ Use Nav1.5
[5] = IonWorks Quattro, use-dependent protocol, hNav1.5, read-out: IWQ Use Nav1.5
[6] = use-dependent protocol, hNav1.3
[7] = use-dependent protocol, hNav1.7

Chain of hNav1.3 (Q9NY46 whole entry, looked up): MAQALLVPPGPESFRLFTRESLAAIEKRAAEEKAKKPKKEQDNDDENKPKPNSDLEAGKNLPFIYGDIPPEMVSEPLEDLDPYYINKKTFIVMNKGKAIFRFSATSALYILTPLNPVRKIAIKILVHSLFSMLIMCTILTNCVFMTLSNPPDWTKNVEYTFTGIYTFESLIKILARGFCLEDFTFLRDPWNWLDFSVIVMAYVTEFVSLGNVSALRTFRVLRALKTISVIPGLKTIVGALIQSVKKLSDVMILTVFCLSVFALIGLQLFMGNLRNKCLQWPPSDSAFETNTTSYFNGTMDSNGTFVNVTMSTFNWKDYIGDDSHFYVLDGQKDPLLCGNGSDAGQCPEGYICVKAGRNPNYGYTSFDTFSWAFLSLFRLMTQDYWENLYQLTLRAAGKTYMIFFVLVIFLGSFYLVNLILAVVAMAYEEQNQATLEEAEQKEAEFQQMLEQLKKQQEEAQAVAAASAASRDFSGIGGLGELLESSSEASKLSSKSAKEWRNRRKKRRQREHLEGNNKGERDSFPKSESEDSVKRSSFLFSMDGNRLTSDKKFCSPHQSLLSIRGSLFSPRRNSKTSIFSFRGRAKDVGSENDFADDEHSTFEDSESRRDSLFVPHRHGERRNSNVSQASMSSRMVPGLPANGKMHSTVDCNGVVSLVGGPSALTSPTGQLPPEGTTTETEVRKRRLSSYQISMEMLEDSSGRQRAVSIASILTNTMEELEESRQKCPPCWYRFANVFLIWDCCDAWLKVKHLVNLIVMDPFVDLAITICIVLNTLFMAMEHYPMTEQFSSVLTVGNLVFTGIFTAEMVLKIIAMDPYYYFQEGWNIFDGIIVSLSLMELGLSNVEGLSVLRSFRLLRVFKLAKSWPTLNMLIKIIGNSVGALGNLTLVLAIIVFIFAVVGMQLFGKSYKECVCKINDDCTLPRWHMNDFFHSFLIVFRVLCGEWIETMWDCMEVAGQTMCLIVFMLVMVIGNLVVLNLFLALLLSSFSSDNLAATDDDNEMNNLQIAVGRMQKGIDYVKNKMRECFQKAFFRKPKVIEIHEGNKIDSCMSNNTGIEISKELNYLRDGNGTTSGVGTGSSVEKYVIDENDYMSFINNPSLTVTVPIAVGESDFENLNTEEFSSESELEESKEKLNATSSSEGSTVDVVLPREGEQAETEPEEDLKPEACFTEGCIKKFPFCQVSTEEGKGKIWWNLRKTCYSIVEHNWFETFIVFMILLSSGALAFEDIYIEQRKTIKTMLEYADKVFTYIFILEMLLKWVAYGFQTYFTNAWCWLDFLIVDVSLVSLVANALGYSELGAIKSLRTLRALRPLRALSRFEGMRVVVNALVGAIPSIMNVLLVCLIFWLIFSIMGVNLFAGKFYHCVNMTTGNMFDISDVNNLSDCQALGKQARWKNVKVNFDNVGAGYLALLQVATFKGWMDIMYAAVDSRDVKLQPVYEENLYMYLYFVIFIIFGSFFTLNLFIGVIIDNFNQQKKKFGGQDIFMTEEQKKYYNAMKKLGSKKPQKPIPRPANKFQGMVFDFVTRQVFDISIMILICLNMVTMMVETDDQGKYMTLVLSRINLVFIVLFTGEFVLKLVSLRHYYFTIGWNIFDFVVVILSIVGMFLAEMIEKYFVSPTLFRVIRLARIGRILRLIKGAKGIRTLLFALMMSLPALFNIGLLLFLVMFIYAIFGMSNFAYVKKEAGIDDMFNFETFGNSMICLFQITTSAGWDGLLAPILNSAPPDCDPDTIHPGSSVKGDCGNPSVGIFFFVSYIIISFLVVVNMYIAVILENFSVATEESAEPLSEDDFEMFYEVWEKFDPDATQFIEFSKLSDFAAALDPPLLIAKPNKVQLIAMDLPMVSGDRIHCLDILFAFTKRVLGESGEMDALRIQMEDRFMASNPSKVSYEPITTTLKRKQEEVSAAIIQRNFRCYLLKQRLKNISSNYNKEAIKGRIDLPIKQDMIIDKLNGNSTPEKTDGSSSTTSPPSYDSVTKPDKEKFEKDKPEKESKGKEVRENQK
Chain of hNav1.5 (Q14524 whole entry, looked up): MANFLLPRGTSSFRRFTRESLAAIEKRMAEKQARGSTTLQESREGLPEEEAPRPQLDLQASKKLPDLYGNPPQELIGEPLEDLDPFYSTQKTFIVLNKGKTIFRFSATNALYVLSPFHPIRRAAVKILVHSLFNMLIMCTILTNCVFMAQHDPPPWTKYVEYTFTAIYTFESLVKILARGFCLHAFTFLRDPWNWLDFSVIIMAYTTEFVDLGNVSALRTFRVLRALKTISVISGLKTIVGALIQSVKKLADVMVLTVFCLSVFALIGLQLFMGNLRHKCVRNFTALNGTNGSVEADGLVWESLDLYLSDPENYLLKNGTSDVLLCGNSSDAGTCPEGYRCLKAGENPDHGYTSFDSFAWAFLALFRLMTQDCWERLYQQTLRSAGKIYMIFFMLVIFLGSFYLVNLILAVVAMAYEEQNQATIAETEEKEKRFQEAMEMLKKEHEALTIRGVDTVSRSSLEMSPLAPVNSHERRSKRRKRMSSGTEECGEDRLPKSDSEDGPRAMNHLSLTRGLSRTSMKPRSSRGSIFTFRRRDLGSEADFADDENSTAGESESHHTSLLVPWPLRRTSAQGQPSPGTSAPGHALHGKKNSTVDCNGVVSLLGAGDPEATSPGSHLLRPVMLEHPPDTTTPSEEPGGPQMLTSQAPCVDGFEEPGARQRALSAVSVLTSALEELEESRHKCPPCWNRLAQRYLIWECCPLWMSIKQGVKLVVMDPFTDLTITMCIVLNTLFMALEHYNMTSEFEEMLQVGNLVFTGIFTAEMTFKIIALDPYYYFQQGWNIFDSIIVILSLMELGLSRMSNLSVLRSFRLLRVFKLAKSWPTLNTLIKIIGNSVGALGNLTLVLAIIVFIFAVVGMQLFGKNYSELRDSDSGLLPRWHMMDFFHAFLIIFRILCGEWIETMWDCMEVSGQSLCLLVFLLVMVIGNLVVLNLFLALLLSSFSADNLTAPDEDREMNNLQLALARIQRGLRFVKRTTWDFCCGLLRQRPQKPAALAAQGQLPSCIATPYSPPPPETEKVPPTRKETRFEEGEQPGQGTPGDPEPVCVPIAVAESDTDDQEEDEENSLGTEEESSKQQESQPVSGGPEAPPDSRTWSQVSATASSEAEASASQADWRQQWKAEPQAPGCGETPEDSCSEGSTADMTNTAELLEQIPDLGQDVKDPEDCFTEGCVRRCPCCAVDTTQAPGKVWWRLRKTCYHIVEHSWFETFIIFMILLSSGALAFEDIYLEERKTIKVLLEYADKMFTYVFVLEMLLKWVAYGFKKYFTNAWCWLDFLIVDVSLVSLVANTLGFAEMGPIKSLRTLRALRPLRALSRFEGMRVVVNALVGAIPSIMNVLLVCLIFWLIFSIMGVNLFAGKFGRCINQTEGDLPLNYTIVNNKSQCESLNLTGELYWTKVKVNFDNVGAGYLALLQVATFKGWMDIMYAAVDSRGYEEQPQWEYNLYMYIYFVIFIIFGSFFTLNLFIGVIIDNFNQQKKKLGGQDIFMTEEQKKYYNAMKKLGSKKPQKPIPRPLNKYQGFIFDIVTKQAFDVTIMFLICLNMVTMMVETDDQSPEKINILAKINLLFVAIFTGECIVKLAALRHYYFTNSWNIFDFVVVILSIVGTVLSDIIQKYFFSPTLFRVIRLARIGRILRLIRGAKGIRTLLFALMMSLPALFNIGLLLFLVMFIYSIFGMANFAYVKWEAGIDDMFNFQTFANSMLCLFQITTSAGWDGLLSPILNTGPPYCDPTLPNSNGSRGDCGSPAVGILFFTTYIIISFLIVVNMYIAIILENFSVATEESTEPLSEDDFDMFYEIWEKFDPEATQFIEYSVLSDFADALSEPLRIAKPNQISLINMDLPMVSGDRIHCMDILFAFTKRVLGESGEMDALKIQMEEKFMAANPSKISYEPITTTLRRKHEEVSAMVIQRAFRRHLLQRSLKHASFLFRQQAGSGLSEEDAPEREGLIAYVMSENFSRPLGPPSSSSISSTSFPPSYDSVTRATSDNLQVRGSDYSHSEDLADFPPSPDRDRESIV

**Q.** What does the source list for `CC[C@H](C)[C@@H]1NC(=O)[C@@H]2CSSC[C@@H]3NC(=O)[C@H](C(C)C)NC(=O)[C@H](CC(C)C)NC(=O)[C@H](CC(N)=O)NC(=O)[C@@H]4CCCN4C(=O)[C@H](CCCNC(=N)N)NC(=O)[C@H](CSSC[C@H](NC(=O)[C@@H](N)CC(=O)O)C(=O)N[C@@H](CC(C)C)C(=O)NCC(=O)N[C@@H](C)C(=O)N[C@@H](CCSC)C(=O)N[C@@H](CCCNC(=N)N)C(=O)N[C@@H](CCCCN)C(=O)N2)NC(=O)[C@H](CSSC[C@@H](C(=O)N[C@@H](CCCCN)C(=O)N[C@@H](Cc2ccc(O)cc2)C(=O)N[C@H](C(=O)N[C@@H](Cc2ccccc2)C(N)=O)C(C)C)NC(=O)[C@H](Cc2c[nH]c4ccccc24)NC(=O)[C@H](CCCCN)NC(=O)[C@H](Cc2cnc[nH]2)NC(=O)[C@H](CC(C)C)NC(=O)[C@H](CCCNC(=N)N)NC(=O)[C@H](CO)NC3=O)NC(=O)[C@H](CCCCN)NC(=O)[C@H](CC(=O)O)NC(=O)[C@H](CC(N)=O)NC(=O)[C@H](CC(=O)O)NC(=O)[C@@H]2CCCN2C1=O` [compound 255] (H-DCLGAMRKCIPDNDKCCRPNLVCSRLHKWCKYVF-NH2; disulfide 2-17, 9-23, 16-30)?
**A.** IC50 ([1]; IWQ Use Nav1.5 (μM)): 5 µM; IC50 ([2]; use-dependent block, hNav1.3): 0.68 µM; IC50 ([3]; use-dependent block, hNav1.7): 0.28 µM

**Q.** Which results are given for `CC(C)C[C@@H]1NC(=O)[C@@H](NC(=O)[C@@H](N)CC(=O)O)CSSC[C@@H]2NC(=O)[C@@H]3CSSC[C@@H](C(=O)N[C@@H](CCCCN)C(=O)N[C@@H](Cc4ccc(O)cc4)C(=O)N[C@H](C(=O)N[C@@H](Cc4ccccc4)C(N)=O)C(C)C)NC(=O)[C@H](Cc4c[nH]c5ccccc45)NC(=O)[C@H](CCCCN)NC(=O)[C@H](Cc4c[nH]cn4)NC(=O)[C@H]([C@@H](C)O)NC(=O)[C@H](CCCNC(=N)N)NC(=O)[C@H](CO)NC(=O)[C@H](CSSC[C@H](NC(=O)[C@H](CCCCN)NC(=O)[C@H](CCCNC(=N)N)NC(=O)[C@H](Cc4ccccc4)NC(=O)CNC(=O)CNC1=O)C(=O)N[C@@H](CCC(=O)O)C(=O)N1CCC[C@H]1C(=O)N[C@@H](CC(=O)O)C(=O)N[C@@H](CC(N)=O)C(=O)N[C@@H](CC(=O)O)C(=O)N[C@@H](CCCCN)C(=O)N3)NC(=O)[C@H](C(C)C)NC(=O)[C@H](CC(C)C)NC(=O)[C@H](CC(N)=O)NC(=O)[C@@H]1CCCN1C(=O)[C@H](CCCNC(=N)N)NC2=O` [compound 754] (H-DCLGGFRKCEPDNDKCCRPNLVCSRTHKWCKYVF-NH2; disulfide 2-17, 9-23, 16-30)?
**A.** IC50 [1, 4]: 34.2 µM; IC50 ([2]; use-dependent block, hNav1.3): 0.33 µM; IC50 ([3]; use-dependent block, hNav1.7): 0.35 µM

**Q.** How did the IC50 [1, 4] turn out when `C#CC[C@@H]1NC(=O)[C@@H]2CCCN2C(=O)[C@H]([C@@H](C)CC)NC(=O)[C@@H]2CSSC[C@@H]3NC(=O)[C@H](C(C)C)NC(=O)[C@H](CC(C)C)NC(=O)[C@H](CC(N)=O)NC(=O)[C@@H]4CCCN4C(=O)[C@H](CCCNC(=N)N)NC(=O)[C@H](CSSC[C@H](NC(=O)[C@@H](N)CC(=O)O)C(=O)N[C@@H](CC(C)C)C(=O)NCC(=O)N[C@@H](C)C(=O)N[C@@H](CC(C)C)C(=O)N[C@@H](CCCNC(=N)N)C(=O)N[C@@H](CCCCN)C(=O)N2)NC(=O)[C@H](CSSC[C@@H](C(=O)N[C@@H](CCCCN)C(=O)N[C@@H](Cc2ccc(O)cc2)C(=O)N[C@H](C(=O)N[C@@H](Cc2ccccc2)C(N)=O)C(C)C)NC(=O)[C@H](Cc2c[nH]c4ccccc24)NC(=O)[C@H](CCCNC(=N)N)NC(=O)[C@H](Cc2c[nH]cn2)NC(=O)[C@H](CC(C)C)NC(=O)[C@H](CCCNC(=N)N)NC(=O)[C@H](CO)NC3=O)NC(=O)[C@H](CCCCN)NC(=O)[C@H](CC(=O)O)NC(=O)[C@H](CC(N)=O)NC1=O` [compound 802] was run?
**A.** > 50 µM

**Q.** What about the IC50 ([2]; use-dependent block, hNav1.3) of the same compound?
**A.** 0.54 µM

**Q.** What about the IC50 ([3]; use-dependent block, hNav1.7) of the same compound?
**A.** 0.26 µM

**Q.** What does the source list for `CC[C@H](C)[C@@H]1NC(=O)[C@@H]2CSSC[C@@H]3NC(=O)[C@H](C(C)C)NC(=O)[C@H](CC(C)C)NC(=O)[C@H](CC(N)=O)NC(=O)[C@@H]4CCCN4C(=O)[C@H](CCCNC(=N)N)NC(=O)[C@H](CSSC[C@H](NC(=O)[C@@H](N)CC(=O)O)C(=O)N[C@@H](CC(C)C)C(=O)NCC(=O)N[C@@H](C)C(=O)N[C@@H](CC(C)C)C(=O)N[C@@H](CCCNC(=N)N)C(=O)N[C@@H](CCCCN)C(=O)N2)NC(=O)[C@H](CSSC[C@@H](C(=O)N[C@@H](CCCCN)C(=O)N[C@@H](Cc2ccc(O)cc2)C(=O)N[C@H](C(=O)N[C@@H](Cc2ccccc2)C(=O)O)C(C)C)NC(=O)[C@H](Cc2c[nH]c4ccccc24)NC(=O)[C@H](CCC(N)=O)NC(=O)[C@H](Cc2c[nH]cn2)NC(=O)[C@H]([C@@H](C)O)NC(=O)[C@H](CCCNC(=N)N)NC(=O)[C@H](CO)NC3=O)NC(=O)[C@H](CCCCN)NC(=O)[C@H](CC(=O)O)NC(=O)[C@H](CC(N)=O)NC(=O)[C@H](CC(=O)O)NC(=O)[C@@H]2CCCN2C1=O` [compound 858] (H-DCLGALRKCIPDNDKCCRPNLVCSRTHQWCKYVF-OH; disulfide 2-17, 9-23, 16-30)?
**A.** IC50 [1, 4]: > 5 µM; IC50 ([2]; use-dependent block, hNav1.3): > 5 µM; IC50 ([3]; use-dependent block, hNav1.7): > 5 µM

**Q.** With `CC[C@H](C)[C@@H]1NC(=O)[C@@H]2CSSC[C@@H]3NC(=O)[C@H](C(C)C)NC(=O)[C@H](CC(C)C)NC(=O)[C@H](CC(N)=O)NC(=O)[C@@H]4CCCN4C(=O)[C@H](CCCNC(=N)N)NC(=O)[C@H](CSSC[C@H](NC(=O)[C@@H](N)CC(=O)O)C(=O)N[C@@H](CC(C)C)C(=O)NCC(=O)N[C@@H](C(C)(C)C)C(=O)N[C@@H](CC(C)C)C(=O)N[C@@H](CCCNC(=N)N)C(=O)N[C@@H](CCCCN)C(=O)N2)NC(=O)[C@H](CSSC[C@@H](C(=O)N[C@@H](CCCCN)C(=O)N[C@@H](Cc2ccc(O)cc2)C(=O)N[C@H](C(=O)N[C@@H](Cc2ccccc2)C(N)=O)C(C)C)NC(=O)[C@H](Cc2c[nH]c4ccccc24)NC(=O)[C@H](CCCCN)NC(=O)[C@H](Cc2c[nH]cn2)NC(=O)[C@H]([C@@H](C)O)NC(=O)[C@H](CCCNC(=N)N)NC(=O)[C@H](CO)NC3=O)NC(=O)[C@H](CCCCN)NC(=O)[C@H](CC(=O)O)NC(=O)[C@H](CC(N)=O)NC(=O)[C@H](CC(=O)O)NC(=O)[C@@H]2CCCN2C1=O` [compound 659] as the compound, how does the IC50 [1, 5] read?
**A.** > 5 µM

**Q.** What about the IC50 [2, 6] of the same compound?
**A.** 0.58 µM

**Q.** What about the IC50 [3, 7] of the same compound?
**A.** 0.26 µM

**Q.** With `C#CC[C@@H]1NC(=O)[C@H](CC(=O)O)NC(=O)[C@@H]2CCCN2C(=O)[C@H]([C@@H](C)CC)NC(=O)[C@@H]2CSSC[C@@H]3NC(=O)[C@H](C(C)C)NC(=O)[C@H](CC(C)C)NC(=O)[C@H](CC(N)=O)NC(=O)[C@@H]4CCCN4C(=O)[C@H](CCCNC(=N)N)NC(=O)[C@H](CSSC[C@H](NC(=O)[C@@H](N)CC(=O)O)C(=O)N[C@@H](CC(C)C)C(=O)NCC(=O)N[C@@H](C)C(=O)N[C@@H](Cc4ccccc4)C(=O)N[C@@H](CCCNC(=N)N)C(=O)N[C@@H](CCCCN)C(=O)N2)NC(=O)[C@H](CSSC[C@@H](C(=O)N[C@@H](CCCCN)C(=O)N[C@@H](Cc2ccc(O)cc2)C(=O)N[C@H](C(=O)N[C@@H](Cc2ccccc2)C(N)=O)C(C)C)NC(=O)[C@H](Cc2c[nH]c4ccccc24)NC(=O)[C@H](CCCCN)NC(=O)[C@H](Cc2c[nH]cn2)NC(=O)[C@H]([C@@H](C)O)NC(=O)[C@H](CCCNC(=N)N)NC(=O)[C@H](CO)NC3=O)NC(=O)[C@H](CCCCN)NC(=O)[C@H](CC(=O)O)NC1=O` [compound 793] (H-DCLGAFRKCIPD[Pra]DKCCRPNLVCSRTHKWCKYVF-NH2; disulfide 2-17, 9-23, 16-30) as the compound, how does the IC50 [1, 4] read?
**A.** 28.6 µM

**Q.** What about the IC50 ([2]; use-dependent block, hNav1.3) of the same compound?
**A.** 0.47 µM

**Q.** And the IC50 ([3]; use-dependent block, hNav1.7)?
**A.** 0.53 µM

**Q.** Which IC50 ([1]; IonWorks Quattro, Use, read-out: IWQ Use Nav1.5) does the source give for `CC[C@H](C)[C@@H]1NC(=O)[C@@H]2CSSC[C@@H]3NC(=O)[C@H](C(C)C)NC(=O)[C@H](CC(C)C)NC(=O)[C@H](CC(N)=O)NC(=O)[C@@H]4CCCN4C(=O)[C@H](CCCNC(=N)N)NC(=O)[C@H](CSSC[C@H](NC(=O)[C@@H](N)CC(=O)O)C(=O)N[C@@H](CC(C)C)C(=O)NCC(=O)N[C@@H](Cc4ccccc4)C(=O)N[C@@H](CCSC)C(=O)N[C@@H](CCCNC(=N)N)C(=O)N[C@@H](CCCCN)C(=O)N2)NC(=O)[C@H](CSSC[C@@H](C(=O)N[C@@H](CCCCN)C(=O)N[C@@H](Cc2ccc(O)cc2)C(=O)N[C@H](C(=O)N[C@@H](Cc2ccccc2)C(N)=O)C(C)C)NC(=O)[C@H](Cc2c[nH]c4ccccc24)NC(=O)[C@H](CCCCN)NC(=O)[C@H](Cc2c[nH]cn2)NC(=O)[C@H]([C@@H](C)O)NC(=O)[C@H](CCCNC(=N)N)NC(=O)[C@H](CO)NC3=O)NC(=O)[C@H](CCCCN)NC(=O)[C@H](CC(=O)O)NC(=O)[C@H](CC(N)=O)NC(=O)[C@H](Cc2cccc3ccccc23)NC(=O)[C@@H]2CCCN2C1=O` [compound 162] (H-DCLGFMRKCIP[1Nal]NDKCCRPNLVCSRTHKWCKYVF-NH2; disulfide 2-17, 9-23, 16-30) here?
**A.** 9.88 µM

**Q.** And the IC50 ([2]; Use)?
**A.** 0.04 µM

**Q.** And the IC50 ([3]; Use)?
**A.** 0.06 µM

**Q.** What does the source list for `CC[C@H](C)[C@@H]1NC(=O)[C@@H]2CSSC[C@@H]3NC(=O)[C@H](C(C)C)NC(=O)[C@H](CC(C)C)NC(=O)[C@H](CC(N)=O)NC(=O)[C@@H]4CCCN4C(=O)[C@H](CCCNC(=N)N)NC(=O)[C@H](CSSC[C@H](NC(=O)[C@@H](N)CC(=O)O)C(=O)N[C@@H](CC(C)C)C(=O)NCC(=O)N[C@@H](CO)C(=O)N[C@@H](Cc4ccccc4)C(=O)N[C@@H](CCCNC(=N)N)C(=O)N[C@@H](CCCCN)C(=O)N2)NC(=O)[C@H](CSSC[C@@H](C(=O)N[C@@H](CCCCN)C(=O)N[C@@H](Cc2ccc(O)cc2)C(=O)N[C@H](C(=O)N[C@@H](Cc2ccccc2)C(N)=O)C(C)C)NC(=O)[C@H](Cc2c[nH]c4ccccc24)NC(=O)[C@H](CCCCN)NC(=O)[C@H](Cc2c[nH]cn2)NC(=O)[C@H]([C@@H](C)O)NC(=O)[C@H](CCCNC(=N)N)NC(=O)[C@H](CO)NC3=O)NC(=O)[C@H](CCCCN)NC(=O)[C@H](CC(=O)O)NC(=O)[C@H](CC(N)=O)NC(=O)[C@H](CC(=O)O)NC(=O)[C@@H]2CCCN2C1=O` [compound 617] (H-DCLGSFRKCIPDNDKCCRPNLVCSRTHKWCKYVF-NH2; disulfide 2-17, 9-23, 16-30)?
**A.** IC50 [1, 5]: 11.9 µM; IC50 [2, 6]: 1.7 µM; IC50 [3, 7]: 0.76 µM

Reference: patent US9340590B2 (priority 2011, dated 2016)
